Our source for the T/C values is PubChem BioAssay AID328 (DTP/NCI, 2004).

“And” between values parts separate entries of the source, which are not always exact repeats. Identical values can stand only once. Inconclusive results and toxic doses are left out.

The test has as its system BDF1 mice, P388 leukemia ip, median survival T/C. The test can be described thus: NCI In Vivo Anticancer Drug Screen. Data for tumor model P388 Leukemia (intraperitoneal) in B6D2F1 (BDF1) mice. Particulars: endpoint: median survival time, higher = longer survival. A digest of the protocol:
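Each value expresses how treatment altered survival: treated-mouse outcome over vehicle-mouse outcome, both groups bearing the transplanted tumour.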

The mark [1] stands for this setting: dose: 12.5 mg/kg/injection, schedule: Q01DX009 (ip), vehicle: saline with Tween-80.
The mark [2] stands for this setting: dose: 25.0 mg/kg/injection, schedule: Q01DX009 (ip), vehicle: saline with Tween-80.
Setting [3] is: dose: 50.0 mg/kg/injection, schedule: Q01DX009 (ip), vehicle: saline with Tween-80.
Setting [4] is: dose: 200.0 mg/kg/injection, schedule: Q01DX009 (ip), vehicle: saline with Tween-80.
Where [5] appears, read: dose: 100.0 mg/kg/injection, schedule: Q01DX009 (ip), vehicle: saline with Tween-80.
The mark [6] stands for this setting: dose: 100.0 mg/kg/injection, schedule: Q04DX003 (ip), vehicle: saline with Tween-80.
Where [7] appears, read: dose: 200.0 mg/kg/injection, schedule: Q04DX003 (ip), vehicle: saline with Tween-80.
[8] abbreviates: dose: 400.0 mg/kg/injection, schedule: Q04DX003 (ip), vehicle: saline with Tween-80.
Setting [9] is: dose: 1.56 mg/kg/injection, schedule: Q01DX009 (ip), vehicle: saline with Tween-80.
The mark [10] stands for this setting: dose: 6.25 mg/kg/injection, schedule: Q01DX009 (ip), vehicle: saline with Tween-80.
Where [11] appears, read: dose: 100.0 mg/kg/injection, schedule: Q04DX003 (ip), vehicle: water.
Where [12] appears, read: dose: 200.0 mg/kg/injection, schedule: Q04DX003 (ip), vehicle: water.
The mark [13] stands for this setting: dose: 100.0 mg/kg/injection, schedule: Q01DX009 (ip), vehicle: saline.
The mark [14] stands for this setting: dose: 200.0 mg/kg/injection, schedule: Q01DX009 (ip), vehicle: saline.
The mark [15] stands for this setting: dose: 100.0 mg/kg/injection, schedule: Q04DX003 (ip), vehicle: saline.
The mark [16] stands for this setting: dose: 200.0 mg/kg/injection, schedule: Q04DX003 (ip), vehicle: saline.

`Clc1ccc(-c2nc3ncccn3n2)cc1`: the T/C was 106 % of control under setting [1]; 95 % of control under setting [2]; 91 % of control and 95 % of control under setting [3]; 101 % of control under setting [4].
With `COc1ccc(C2=NNC(=O)OC2c2ccccc2)cc1` (centres undefined), the T/C reads like this: under setting [2], 92 % of control and 102 % of control; under setting [3], 91 % of control and 96 % of control and 99 % of control; under setting [5], 100 % of control and 110 % of control; under setting [4], 91 % of control and 102 % of control and 105 % of control.
Take `CCOC(=O)Cn1c(C(F)(F)F)nc2nc(Cl)c(Cl)nc21`: the T/C by setting is: under setting [6], 110 % of control; under setting [7], 110 % of control; under setting [8], 110 % of control.
Turning to `N#CSCc1ccc(CSC#N)c(Cl)c1`, the T/C under setting [9] is 118 % of control and the T/C under setting [10] is 100 % of control.
`S=c1nc[nH]c2nc[nH]c12`: the T/C was 104 % of control under setting [1]; 150 % of control (dose: 15.0 mg/kg/injection, schedule: Q01DX010 (ip), vehicle: saline); 100 % of control (dose: 20.0 mg/kg/injection, schedule: Q01DX010 (ip), vehicle: saline); 110 % of control (dose: 20.0 mg/kg/injection, schedule: Q01DX010 (ip), vehicle: water); 113 % of control under setting [2]; 104 % of control and 107 % of control (dose: 26.0 mg/kg/injection, schedule: Q01DX009 (ip), vehicle: alkali diluted with saline). In addition, the T/C reads like this: (dose: 30.0 mg/kg/injection, schedule: Q01DX010 (ip), vehicle: saline) 90 % of control and 104 % of control; (dose: 40.0 mg/kg/injection, schedule: Q01DX010 (ip), vehicle: saline) 100 % of control; (dose: 40.0 mg/kg/injection, schedule: Q01DX010 (ip), vehicle: water) 110 % of control; (dose: 60.0 mg/kg/injection, schedule: Q01DX010 (ip), vehicle: water) 110 % of control; (dose: 72.0 mg/kg/injection, schedule: Q01DX009 (ip), vehicle: alkali diluted with saline) 117 % of control; (dose: 80.0 mg/kg/injection, schedule: Q01DX010 (ip), vehicle: saline) 104 % of control. In addition, the T/C (dose: 90.0 mg/kg/injection, schedule: Q01DX009 (ip), vehicle: alkali diluted with saline) was 107 % of control and 111 % of control; the T/C (dose: 120.0 mg/kg/injection, schedule: Q01DX009 (ip), vehicle: alkali diluted with saline) is 103 % of control; the T/C (dose: 120.0 mg/kg/injection, schedule: Q01DX010 (ip), vehicle: saline) is 109 % of control; the T/C (dose: 160.0 mg/kg/injection, schedule: Q01DX010 (ip), vehicle: saline) was 90 % of control.
As for `CC12CCC(c3sc(N)c(C#N)c31)C2(C)C` (centres undefined), the T/C by setting is: under setting [9], 88 % of control; (dose: 3.13 mg/kg/injection, schedule: Q01DX009 (ip), vehicle: saline with Tween-80) 102 % of control; under setting [10], 104 % of control; under setting [1], 104 % of control and 121 % of control; under setting [2], 104 % of control; under setting [3], 118 % of control.
As for `Cc1[nH]c(=O)[nH]c(=O)c1C`, the T/C runs as follows: (dose: 50.0 mg/kg/injection, schedule: Q01DX009 (ip), vehicle: Klucel (hydroxypropylcellulose) (HPC)) 104 % of control; (dose: 100.0 mg/kg/injection, schedule: Q01DX009 (ip), vehicle: Klucel (hydroxypropylcellulose) (HPC)) 109 % of control; (dose: 200.0 mg/kg/injection, schedule: Q01DX009 (ip), vehicle: Klucel (hydroxypropylcellulose) (HPC)) 104 % of control.
On to `NC(=O)OCc1c(O)c2c(c(O)c1COC(N)=O)C(=O)C=CC2=O`, for which the T/C was 111 % of control (dose: 12.5 mg/kg/injection, schedule: Q01DX009 (ip), vehicle: water); 100 % of control (dose: 12.5 mg/kg/injection, schedule: Q04DX003 (ip), vehicle: water); 92 % of control (dose: 25.0 mg/kg/injection, schedule: Q01DX009 (ip), vehicle: water); 104 % of control (dose: 25.0 mg/kg/injection, schedule: Q04DX003 (ip), vehicle: water); 104 % of control (dose: 50.0 mg/kg/injection, schedule: Q01DX009 (ip), vehicle: water); 101 % of control (dose: 50.0 mg/kg/injection, schedule: Q04DX003 (ip), vehicle: water). In addition, the T/C is 100 % of control under setting [11]; 102 % of control and 113 % of control under setting [12]; 95 % of control (dose: 300.0 mg/kg/injection, schedule: Q04DX003 (ip), vehicle: water); 108 % of control (dose: 400.0 mg/kg/injection, schedule: Q04DX003 (ip), vehicle: water).
In the case of `C[N+]1(C)CCCC1`, the T/C (dose: 6.25 mg/kg/injection, schedule: Q04DX003 (ip), vehicle: saline) is 100 % of control and the T/C (dose: 12.5 mg/kg/injection, schedule: Q04DX003 (ip), vehicle: saline) is 100 % of control.
In the case of `S=c1nc[nH]c2nc[nH]c12.[Ag]`, the T/C was 100 % of control under setting [13]; 108 % of control under setting [14]; 87 % of control (dose: 400.0 mg/kg/injection, schedule: Q01DX009 (ip), vehicle: saline).
Consider `CSCCC(NC(C)=O)C(=O)O` (centres undefined), for which the T/C runs as follows: under setting [13], 96 % of control; under setting [15], 87 % of control; under setting [14], 88 % of control; under setting [16], 87 % of control; (dose: 400.0 mg/kg/injection, schedule: Q04DX003 (ip), vehicle: saline) 91 % of control.
With `COc1cc2ccnc(Cc3ccccc3)c2cc1OC`, the T/C under setting [5] is 109 % of control; the T/C under setting [6] is 109 % of control; the T/C under setting [4] was 104 % of control; the T/C under setting [7] was 109 % of control; the T/C under setting [8] is 109 % of control.
Consider `COC(=O)C1(C)CCC(c2ccc(OC)cc2)CC1=O` (centres undefined), for which the T/C was 86 % of control (dose: 50.0 mg/kg/injection, schedule: Q01DX009 (ip), vehicle: saline); 100 % of control under setting [13]; 100 % of control under setting [15]; 109 % of control under setting [14]; 103 % of control under setting [16].
For the compound `C=CCOc1ccccc1N/N=C(\Cl)C(=O)OCC`, the T/C under setting [3] was 119 % of control.
On to `CCS(=O)(=O)c1ncc2cnccn12`, for which the T/C reads like this: (dose: 100.0 mg/kg/injection, schedule: Q01DX009 (ip), vehicle: water) 92 % of control; under setting [11], 95 % of control; (dose: 200.0 mg/kg/injection, schedule: Q01DX009 (ip), vehicle: water) 105 % of control; under setting [12], 91 % of control; (dose: 400.0 mg/kg/injection, schedule: Q01DX009 (ip), vehicle: water) 100 % of control.
As for `Clc1ccc(N=Cc2ccc(C=Nc3ccc(Cl)c(Cl)c3)cc2)cc1Cl`, the T/C was 100 % of control (dose: 100.0 mg/kg/injection, schedule: Q04DX003 (ip), vehicle: Klucel (hydroxypropylcellulose) (HPC)); 90 % of control (dose: 200.0 mg/kg/injection, schedule: Q04DX003 (ip), vehicle: Klucel (hydroxypropylcellulose) (HPC)); 100 % of control (dose: 400.0 mg/kg/injection, schedule: Q04DX003 (ip), vehicle: Klucel (hydroxypropylcellulose) (HPC)).
For `CN(C)c1ccc(C=C2C(=O)CC(C)(C)CC2=O)cc1`, the T/C reads like this: under setting [3], 105 % of control; under setting [5], 95 % of control; under setting [4], 97 % of control.
As to `CCOC(=O)c1ccnc2ccc(O)cc12`, the T/C under setting [6] is 91 % of control, the T/C under setting [7] is 108 % of control and the T/C under setting [8] was 95 % of control.
Regarding `CN1CC2OC2C2C1N2C#N` (centres undefined), the T/C was 97 % of control (dose: 25.0 mg/kg/injection, schedule: Q01DX005 (ip), vehicle: saline); 106 % of control (dose: 50.0 mg/kg/injection, schedule: Q01DX005 (ip), vehicle: saline); 111 % of control (dose: 100.0 mg/kg/injection, schedule: Q01DX005 (ip), vehicle: saline); 115 % of control (dose: 200.0 mg/kg/injection, schedule: Q01DX005 (ip), vehicle: saline).
Take `CCCN1CCN(c2ccc([N+](=O)[O-])c3no[n+]([O-])c23)CC1`: the T/C was 122 % of control (dose: 2.5 mg/kg/injection, schedule: Q01DX009 (ip), vehicle: saline with Tween-80) and 155 % of control (dose: 10.0 mg/kg/injection, schedule: Q01DX009 (ip), vehicle: saline with Tween-80).
